# Details: phenol between MCT oil phase and saline phase; oil and saline 19:1; HPLC
# Source text: The partition coefficient P is a value calculated by dividing a concentration of preservative in the oil phase by a concentration of preservative in the water phase.
compound,measurement,value
Oc1ccccc1 [phenol],logP,1.1
